Bridge positions count the residues as written; N and C are the ends. Square brackets hold non-standard residues; d marks the D form. Peptide text beside a SMILES is read from it. * marks the point of attachment. Bip(4'-COOH) = N[C@@H](Cc1ccc(-c2ccc(C(=O)O)cc2)cc1)C(=O)O; Bip(4'-NHAc) = CC(=O)Nc1ccc(-c2ccc(C[C@H](N)C(=O)O)cc2)cc1; Phe(3-CF3) = N[C@@H](Cc1cccc(C(F)(F)F)c1)C(=O)O; Ala(morpholin-4-yl) = N[C@@H](CN1CCOCC1)C(=O)O; Phe(4-COOH) = N[C@@H](Cc1ccc(C(=O)O)cc1)C(=O)O; Bip = N[C@@H](Cc1ccc(-c2ccccc2)cc1)C(=O)O; Phe(2-Cl) = N[C@@H](Cc1ccccc1Cl)C(=O)O; Phe(3-Me) = Cc1cccc(C[C@H](N)C(=O)O)c1; Val(3-OH) = CC(C)(O)[C@H](N)C(=O)O; hPhe = N[C@@H](CCc1ccccc1)C(=O)O; 2Pal = N[C@@H](Cc1ccccn1)C(=O)O; Cha = N[C@@H](CC1CCCCC1)C(=O)O; Carboxymethyl = O=C(O)C*; NMeA = CN[C@@H](C)C(=O)O; Orn = NCCC[C@H](N)C(=O)O; Dab = NCC[C@H](N)C(=O)O

T1 sequence (Q15116 25-288): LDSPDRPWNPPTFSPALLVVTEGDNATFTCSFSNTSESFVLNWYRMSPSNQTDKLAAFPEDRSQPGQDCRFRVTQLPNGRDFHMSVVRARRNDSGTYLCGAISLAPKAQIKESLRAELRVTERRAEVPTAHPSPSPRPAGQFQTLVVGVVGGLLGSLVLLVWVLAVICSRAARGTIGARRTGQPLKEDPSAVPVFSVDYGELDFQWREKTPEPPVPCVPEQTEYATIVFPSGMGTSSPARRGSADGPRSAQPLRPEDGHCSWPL

One test addresses T1, Alexa fluor-647 labeled human PD-L1-Ig binding to Jurkat cell line over-expressing human PD-1 (Homo sapiens, UniProt Q15116).
T1 construct: expressed in transfected cells; host or cells: Jurkat
The experiment in a line: Jurkat-PD-1 Cell Binding High-Content Screening Assay (CBA): Method 3 (Alexa fluor-647 labeled PD-L1-Ig). The settings on record: Jurkat-PD-1 cells, Alexa fluor-647 labeled PD-L1-Ig 177 nM; head μM; read-out: CBA Method 3 μM. The procedure, abridged:
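Readout by high-content imaging of PFA-fixed, Hoechst-stained cells after 1 h with 177 nM (final) Alexa fluor-647 PD-L1-Ig. Compound was added first to hPD-1 Jurkat cells in RPMI plus 10% FCS for 2 h at 37 °C.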
Regarding `CC(C)C[C@H]1NC(=O)[C@H](C)N(C)C(=O)[C@H](CCC(N)=O)NC(=O)[C@H](Cc2ccc(-c3ccccc3)cc2)NC(=O)[C@H](Cc2ccc(OCC(=O)O)cc2)NC(=O)[C@H](Cc2cccc(C(F)(F)F)c2)NC(=O)[C@H](CC(=O)O)NC(=O)[C@H](CCc2ccccc2)NC(=O)[C@H](CN2CCOCC2)NC(=O)CSC[C@@H](C(=O)N[C@@H](CCN)C(N)=O)NC(=O)[C@H](CCCN)NC(=O)[C@H](C(C)C)NC(=O)[C@H](CC2CCCCC2)NC(=O)[C@H](CCN)NC1=O` [Example 5264] ({CH2CO}-[Ala(morpholin-4-yl)][hPhe]D[Phe(3-CF3)]Y(Carboxymethyl)[Bip]Q[NMeA][dL][Dab][Cha]V[Orn]C[Dab]-NH2; thioether N-14), the IC50 is 0.1 µM.

Regarding `Cc1cccc(C[C@@H]2NC(=O)[C@H](CC(=O)O)NC(=O)[C@H](Cc3ccc(OCC(=O)O)cc3)NC(=O)[C@H](CC3CCCCC3)NC(=O)CSC[C@@H](C(=O)N[C@@H](CCN)C(N)=O)NC(=O)[C@H](CCCN)NC(=O)[C@H](C(C)C)NC(=O)[C@H](Cc3ccccn3)NC(=O)[C@H](CCN)NC(=O)[C@@H](CC(C)C)NC(=O)[C@H](C)N(C)C(=O)[C@H](CCC(N)=O)NC(=O)[C@H](Cc3ccc(-c4ccccc4)cc3)NC(=O)[C@H](Cc3ccc(C(=O)O)cc3)NC2=O)c1` [Example 5194] ({CH2CO}-[Cha]Y(Carboxymethyl)D[Phe(3-Me)][Phe(4-COOH)][Bip]Q[NMeA][dL][Dab][2Pal]V[Orn]C[Dab]-NH2; thioether N-14), the IC50 worked out at 0.04 µM. The same measure, in the same setting: the value for `Cc1cccc(C[C@@H]2NC(=O)[C@H](CC(=O)O)NC(=O)[C@H](Cc3ccc(-c4ccc(C(=O)O)cc4)cc3)NC(=O)[C@H](C)NC(=O)CSC[C@@H](C(=O)N[C@@H](CCN)C(N)=O)NC(=O)[C@H](CO)NC(=O)[C@H](C(C)(C)O)NC(=O)[C@H](CC3CCCCC3)NC(=O)[C@H](Cc3cnc[nH]3)NC(=O)[C@@H](CC(C)C)NC(=O)[C@H](C)N(C)C(=O)[C@H](Cc3ccc(C(=O)O)cc3)NC(=O)[C@H](Cc3ccc(-c4ccccc4)cc3)NC(=O)[C@H](Cc3ccc(-c4ccc(C(=O)O)cc4)cc3)NC2=O)c1` [Example 5121] ({CH2CO}-A[Bip(4'-COOH)]D[Phe(3-Me)][Bip(4'-COOH)][Bip][Phe(4-COOH)][NMeA][dL]H[Cha][Val(3-OH)]SC[Dab]-NH2; thioether N-14) was 0.07 µM; that for `Cc1cccc(C[C@@H]2NC(=O)[C@H](CC(=O)O)NC(=O)[C@H](Cc3ccc(OCC(=O)O)cc3)NC(=O)[C@H](CC3CCCCC3)NC(=O)CSC[C@@H](C(=O)N[C@@H](CCN)C(N)=O)NC(=O)[C@H](CCCN)NC(=O)[C@H](C(C)C)NC(=O)[C@H](CC3CCCCC3)NC(=O)[C@H](CCN)NC(=O)[C@@H](CC(C)C)NC(=O)[C@H](C)N(C)C(=O)[C@H](CCC(N)=O)NC(=O)[C@H](Cc3ccc(-c4ccccc4)cc3)NC(=O)[C@H](Cc3ccc(C(=O)O)cc3)NC2=O)c1` [Example 5174] ({CH2CO}-[Cha]Y(Carboxymethyl)D[Phe(3-Me)][Phe(4-COOH)][Bip]Q[NMeA][dL][Dab][Cha]V[Orn]C[Dab]-NH2; thioether N-14) was 0.01 µM. As to `Cc1cccc(C[C@@H]2NC(=O)[C@H](CC(=O)O)NC(=O)[C@H](Cc3ccc(OCC(=O)O)cc3)NC(=O)[C@H](C)NC(=O)CSC[C@@H](C(=O)N[C@@H](CCN)C(N)=O)NC(=O)[C@H](CCC(=O)O)NC(=O)[C@H](C(C)C)NC(=O)[C@H](CC3CCCCC3)NC(=O)[C@H](CCN)NC(=O)[C@@H](CC(C)C)NC(=O)[C@H](C)N(C)C(=O)[C@H](Cc3ccc(OCC(=O)O)cc3)NC(=O)[C@H](Cc3ccc(-c4ccccc4)cc3)NC(=O)[C@H](Cc3ccc(OCC(=O)O)cc3)NC2=O)c1` [Example 5139] ({CH2CO}-AY(Carboxymethyl)D[Phe(3-Me)]Y(Carboxymethyl)[Bip]Y(Carboxymethyl)[NMeA][dL][Dab][Cha]VEC[Dab]-NH2; thioether N-14), the IC50 is 0.03 µM. Same read-out and setting: the value for `Cc1cccc(C[C@@H]2NC(=O)[C@H](CC(=O)O)NC(=O)[C@H](Cc3ccc(-c4ccc(C(=O)O)cc4)cc3)NC(=O)[C@H](CN3CCOCC3)NC(=O)CSC[C@@H](C(=O)N[C@@H](CCN)C(N)=O)NC(=O)[C@H](Cc3cnc[nH]3)NC(=O)[C@H](C(C)(C)O)NC(=O)[C@H](CC3CCCCC3)NC(=O)[C@H](CCN)NC(=O)[C@@H](CC(C)C)NC(=O)[C@H](C)N(C)C(=O)[C@H](Cc3ccc(C(=O)O)cc3)NC(=O)[C@H](Cc3ccc(-c4ccccc4)cc3)NC(=O)[C@H](Cc3ccc(-c4ccc(C(=O)O)cc4)cc3)NC2=O)c1` [Example 5133] ({CH2CO}-[Ala(morpholin-4-yl)][Bip(4'-COOH)]D[Phe(3-Me)][Bip(4'-COOH)][Bip][Phe(4-COOH)][NMeA][dL][Dab][Cha][Val(3-OH)]HC[Dab]-NH2; thioether N-14) was 0.2 µM.

Staying with this test, now noted: Jurkat-PD-1 cells, Alexa fluor-647 labeled PD-L1-Ig 177 nM; nM; read-out: CBA Method 3.
Turning to `Cc1cccc(C[C@@H]2NC(=O)[C@H](CC(=O)O)NC(=O)[C@H](Cc3ccc(OCC(=O)O)cc3)NC(=O)[C@H](Cc3ccccc3Cl)NC(=O)CSC[C@@H](C(=O)N[C@@H](CCN)C(N)=O)NC(=O)[C@H](CCCN)NC(=O)[C@H](C(C)C)NC(=O)[C@H](CC3CCCCC3)NC(=O)[C@H](CCN)NC(=O)[C@@H](CC(C)C)NC(=O)[C@H](C)N(C)C(=O)[C@H](CCC(N)=O)NC(=O)[C@H](Cc3ccc(-c4ccccc4)cc3)NC(=O)[C@H](Cc3ccc(C(=O)O)cc3)NC2=O)c1` [Example 5291] ({CH2CO}-[Phe(2-Cl)]Y(Carboxymethyl)D[Phe(3-Me)][Phe(4-COOH)][Bip]Q[NMeA][dL][Dab][Cha]V[Orn]C[Dab]-NH2; thioether N-14), the IC50 stood at 0.0002 µM.

As for `CC(=O)Nc1ccc(-c2ccc(C[C@@H]3NC(=O)[C@H](Cc4cccc(C(F)(F)F)c4)NC(=O)[C@H](CC(=O)O)NC(=O)[C@H](Cc4ccc(C(=O)O)cc4)NC(=O)[C@H](Cc4ccc(OCC(=O)O)cc4)NC(=O)CSC[C@@H](C(=O)N[C@@H](CCN)C(N)=O)NC(=O)[C@H](CCC(=O)O)NC(=O)[C@H](C(C)C)NC(=O)[C@H](CC4CCCCC4)NC(=O)[C@H](CCN)NC(=O)[C@@H](CC(C)C)NC(=O)[C@H](C)N(C)C(=O)[C@H](Cc4ccc(OCC(=O)O)cc4)NC(=O)[C@H](Cc4ccc(-c5ccccc5)cc4)NC3=O)cc2)cc1` [Example 5163] ({CH2CO}-Y(Carboxymethyl)[Phe(4-COOH)]D[Phe(3-CF3)][Bip(4'-NHAc)][Bip]Y(Carboxymethyl)[NMeA][dL][Dab][Cha]VEC[Dab]-NH2; thioether N-14), the IC50 came to 0.0025 µM. On to `Cc1cccc(C[C@@H]2NC(=O)[C@H](CC(=O)O)NC(=O)[C@H](Cc3ccc(OCC(=O)O)cc3)NC(=O)[C@H](CCN)NC(=O)CSC[C@@H](C(=O)N[C@@H](CCN)C(N)=O)NC(=O)[C@H](CCCN)NC(=O)[C@H](C(C)C)NC(=O)[C@H](CC3CCCCC3)NC(=O)[C@H](CCN)NC(=O)[C@@H](CC(C)C)NC(=O)[C@H](C)N(C)C(=O)[C@H](CCC(N)=O)NC(=O)[C@H](Cc3ccc(-c4ccccc4)cc3)NC(=O)[C@H](Cc3ccc(C(=O)O)cc3)NC2=O)c1` [Example 5179] ({CH2CO}-[Dab]Y(Carboxymethyl)D[Phe(3-Me)][Phe(4-COOH)][Bip]Q[NMeA][dL][Dab][Cha]V[Orn]C[Dab]-NH2; thioether N-14), for which the IC50 is 0.0039 µM.

(Values after US20240409585A1, “MACROCYCLIC IMMUNOMODULATORS” (priority 2021, published 2024).)
